The numbers were not newly measured in patent US20240265995A1, “System of Predicting Sensitivity of Klebsiella against Cefoxitin and Method” (priority 2023, published 2024), which cites them from elsewhere.

For the series, the system named is carbapenem resistant Klebsiella pneumoniae. Conditions: carbapenem resistant Klebsiella pneumoniae isolated from 2014 to 2017 (252/403).

In the case of `C[C@@H](O)[C@H]1C(=O)N2C(C(=O)O)=C(S[C@@H]3CN[C@H](C(=O)N(C)C)C3)[C@H](C)[C@H]12` [meropenem], the “resistance rate against meropenem” value is 62.5%.
